Values after ≈ are worked out from the molar mass of the structure shown.
System: Enterococcus faecium UL602570 (vanA, clinical isolate)
Format: cell-based
Settings: UL602570 (vanA, clinical isolate, 18 h)
Experimental: The minimum inhibitory concentration (MIC) was determined by microdilution following the EUCAST and CLSI guidelines via the broth microdilution assay on a 96-well plate. Substances were dissolved in saline solution (0.9%) at a concentration equimolar to 1.28 mg/mL vancomycin. With an increasing hydrophobicity, some substances had to be pre-dissolved in DMSO. The final concentration of DMSO remained below 1.5% and was compared to the DMSO control (no antimicrobial effect was observed up to the highest concentration tested (10%)). All substances were serially diluted on the 96-well plate using Mueller-Hinton-Broth II (cation adjusted). Vancomycin was always used as a control. For bacterial loading, an overnight culture of the referring strain was taken and adjusted to a turbidity corresponding to 10^8 cfu/mL. The bacterial suspension was further diluted to load a bacterial number of 10^6 cfu/mL on the 96-well plate and incubate it for 18 h at 35 ± 1 °C, as described before. MIC was defined as the lowest concentration without visible growth.

MIC median	Compound	MIC range
72.00 µg/mL (≈ 30.6 µM)	CCCCCC(=O)N[C@@H](CCCNC(=N)N)C(=O)N[C@@H](CCCNC(=N)N)C(=O)N[C@@H](CCCNC(=N)N)C(=O)N[C@@H](CSC1CC(=O)N(CC2CCC(C(=O)N(C)[C@H](CC(C)C)C(=O)N[C@H]3C(=O)N[C@@H](CC(N)=O)C(=O)N[C@H]4C(=O)N[C@H]5C(=O)N[C@H](C(=O)N[C@H](C(=O)O)c6cc(O)cc(O)c6-c6cc5ccc6O)[C@H](O)c5ccc(c(Cl)c5)Oc5cc4cc(c5O[C@@H]4O[C@H](CO)[C@@H](O)[C@H](O)[C@H]4O[C@H]4C[C@](C)(N)[C@H](O)[C@H](C)O4)Oc4ccc(cc4Cl)[C@H]3O)CC2)C1=O)C(N)=O (stereo partly shown) [VN-R3C-C6]	36.00 to 72.00 µg/mL
2.41 µg/mL (≈ 0.977 µM)	CCCCCCCCCCCCCC(=O)N[C@@H](CCCNC(=N)N)C(=O)N[C@@H](CCCNC(=N)N)C(=O)N[C@@H](CCCNC(=N)N)C(=O)N[C@@H](CSC1CC(=O)N(CC2CCC(C(=O)N(C)[C@H](CC(C)C)C(=O)N[C@H]3C(=O)N[C@@H](CC(N)=O)C(=O)N[C@H]4C(=O)N[C@H]5C(=O)N[C@H](C(=O)N[C@H](C(=O)O)c6cc(O)cc(O)c6-c6cc5ccc6O)[C@H](O)c5ccc(c(Cl)c5)Oc5cc4cc(c5O[C@@H]4O[C@H](CO)[C@@H](O)[C@H](O)[C@H]4O[C@H]4C[C@](C)(N)[C@H](O)[C@H](C)O4)Oc4ccc(cc4Cl)[C@H]3O)CC2)C1=O)C(N)=O (stereo partly shown) [VN-R3C-C14]	2.41 to 4.81 µg/mL
18.31 µg/mL (≈ 7.68 µM)	CCCCCCCC(=O)N[C@@H](CCCNC(=N)N)C(=O)N[C@@H](CCCNC(=N)N)C(=O)N[C@@H](CCCNC(=N)N)C(=O)N[C@@H](CSC1CC(=O)N(CC2CCC(C(=O)N(C)[C@H](CC(C)C)C(=O)N[C@H]3C(=O)N[C@@H](CC(N)=O)C(=O)N[C@H]4C(=O)N[C@H]5C(=O)N[C@H](C(=O)N[C@H](C(=O)O)c6cc(O)cc(O)c6-c6cc5ccc6O)[C@H](O)c5ccc(c(Cl)c5)Oc5cc4cc(c5O[C@@H]4O[C@H](CO)[C@@H](O)[C@H](O)[C@H]4O[C@H]4C[C@](C)(N)[C@H](O)[C@H](C)O4)Oc4ccc(cc4Cl)[C@H]3O)CC2)C1=O)C(N)=O (stereo partly shown) [VN-R3C-C8]	9.16 to 18.31 µg/mL
106.00 µg/mL (≈ 44.2 µM)	CCCCCC(=O)N[C@@H](CCCNC(=N)N)C(=O)N[C@@H](CCCNC(=N)N)C(=O)N[C@@H](CCCNC(=N)N)C(=O)N[C@@H](CSC1CC(=O)N(CC2CCC(C(=O)NCCNC(=O)[C@H]3NC(=O)[C@H]4NC(=O)[C@H](NC(=O)[C@@H]5NC(=O)[C@H](CC(N)=O)NC(=O)[C@H](NC(=O)[C@@H](CC(C)C)NC)[C@H](O)c6ccc(c(Cl)c6)Oc6cc5cc(c6O[C@@H]5O[C@H](CO)[C@@H](O)[C@H](O)[C@H]5O[C@H]5C[C@](C)(N)[C@H](O)[C@H](C)O5)Oc5ccc(cc5Cl)[C@H]4O)c4ccc(O)c(c4)-c4c(O)cc(O)cc43)CC2)C1=O)C(N)=O (stereo partly shown) [VC-R3C-C6]	
9.54 µg/mL (≈ 3.93 µM)	CCCCCCCC(=O)N[C@@H](CCCNC(=N)N)C(=O)N[C@@H](CCCNC(=N)N)C(=O)N[C@@H](CCCNC(=N)N)C(=O)N[C@@H](CSC1CC(=O)N(CC2CCC(C(=O)NCCNC(=O)[C@H]3NC(=O)[C@H]4NC(=O)[C@H](NC(=O)[C@@H]5NC(=O)[C@H](CC(N)=O)NC(=O)[C@H](NC(=O)[C@@H](CC(C)C)NC)[C@H](O)c6ccc(c(Cl)c6)Oc6cc5cc(c6O[C@@H]5O[C@H](CO)[C@@H](O)[C@H](O)[C@H]5O[C@H]5C[C@](C)(N)[C@H](O)[C@H](C)O5)Oc5ccc(cc5Cl)[C@H]4O)c4ccc(O)c(c4)-c4c(O)cc(O)cc43)CC2)C1=O)C(N)=O (stereo partly shown) [VC-R3C-C8]	9.54 to 19.08 µg/mL
4.63 µg/mL (≈ 1.93 µM)	CCCCCC(=O)N[C@@H](CCCNC(=N)N)C(=O)N[C@@H](CCCNC(=N)N)C(=O)N[C@@H](CCCNC(=N)N)C(=O)N[C@@H](CSC1CC(=O)N(CC2CCC(C(=O)NCCN[C@@]3(C)C[C@H](O[C@H]4[C@H](Oc5c6cc7cc5Oc5ccc(cc5Cl)[C@@H](O)[C@@H](NC(=O)[C@@H](CC(C)C)NC)C(=O)N[C@@H](CC(N)=O)C(=O)N[C@H]7C(=O)N[C@H]5C(=O)N[C@H](C(=O)N[C@H](C(=O)O)c7cc(O)cc(O)c7-c7cc5ccc7O)[C@H](O)c5ccc(c(Cl)c5)O6)O[C@H](CO)[C@@H](O)[C@@H]4O)O[C@@H](C)[C@H]3O)CC2)C1=O)C(N)=O (stereo partly shown) [VV-R3C-C6]	2.31 to 9.25 µg/mL

Second part, the compound before the results:

Compound	MIC median	MIC range
CCCCCCCCCCCCCCCC(=O)N[C@@H](CCCNC(=N)N)C(=O)N[C@@H](CCCNC(=N)N)C(=O)N[C@@H](CCCNC(=N)N)C(=O)N[C@@H](CSC1CC(=O)N(CC2CCC(C(=O)N(C)[C@H](CC(C)C)C(=O)N[C@H]3C(=O)N[C@@H](CC(N)=O)C(=O)N[C@H]4C(=O)N[C@H]5C(=O)N[C@H](C(=O)N[C@H](C(=O)O)c6cc(O)cc(O)c6-c6cc5ccc6O)[C@H](O)c5ccc(c(Cl)c5)Oc5cc4cc(c5O[C@@H]4O[C@H](CO)[C@@H](O)[C@H](O)[C@H]4O[C@H]4C[C@](C)(N)[C@H](O)[C@H](C)O4)Oc4ccc(cc4Cl)[C@H]3O)CC2)C1=O)C(N)=O (stereo partly shown) [VN-R3C-C16]	2.45 µg/mL (≈ 0.982 µM)	2.45 to 4.89 µg/mL
CC(C)C[C@H](C(=O)N[C@H]1C(=O)N[C@@H](CC(N)=O)C(=O)N[C@H]2C(=O)N[C@H]3C(=O)N[C@H](C(=O)N[C@H](C(=O)O)c4cc(O)cc(O)c4-c4cc3ccc4O)[C@H](O)c3ccc(c(Cl)c3)Oc3cc2cc(c3O[C@@H]2O[C@H](CO)[C@@H](O)[C@H](O)[C@H]2O[C@H]2C[C@](C)(N)[C@H](O)[C@H](C)O2)Oc2ccc(cc2Cl)[C@H]1O)N(C)C(=O)C1CCC(CN2C(=O)CC(SC[C@H](NC(=O)[C@H](CCCNC(=N)N)NC(=O)[C@H](CCCNC(=N)N)NC(=O)[C@@H](N)CCCNC(=N)N)C(N)=O)C2=O)CC1 (stereo partly shown) [VN-R3C]	67.75 µg/mL (≈ 30 µM)	32.00 to 67.75 µg/mL
CCCCCCCCCC(=O)N[C@@H](CCCNC(=N)N)C(=O)N[C@@H](CCCNC(=N)N)C(=O)N[C@@H](CCCNC(=N)N)C(=O)N[C@@H](CSC1CC(=O)N(CC2CCC(C(=O)NCCNC(=O)[C@H]3NC(=O)[C@H]4NC(=O)[C@H](NC(=O)[C@@H]5NC(=O)[C@H](CC(N)=O)NC(=O)[C@H](NC(=O)[C@@H](CC(C)C)NC)[C@H](O)c6ccc(c(Cl)c6)Oc6cc5cc(c6O[C@@H]5O[C@H](CO)[C@@H](O)[C@H](O)[C@H]5O[C@H]5C[C@](C)(N)[C@H](O)[C@H](C)O5)Oc5ccc(cc5Cl)[C@H]4O)c4ccc(O)c(c4)-c4c(O)cc(O)cc43)CC2)C1=O)C(N)=O (stereo partly shown) [VC-R3C-C10]	4.77 µg/mL (≈ 1.94 µM)	4.77 to 9.53 µg/mL
CCCCCCCCCCCCCCCC(=O)N[C@@H](CCCNC(=N)N)C(=O)N[C@@H](CCCNC(=N)N)C(=O)N[C@@H](CCCNC(=N)N)C(=O)N[C@@H](CSC1CC(=O)N(CC2CCC(C(=O)NCCN[C@@]3(C)C[C@H](O[C@H]4[C@H](Oc5c6cc7cc5Oc5ccc(cc5Cl)[C@@H](O)[C@@H](NC(=O)[C@@H](CC(C)C)NC)C(=O)N[C@@H](CC(N)=O)C(=O)N[C@H]7C(=O)N[C@H]5C(=O)N[C@H](C(=O)N[C@H](C(=O)O)c7cc(O)cc(O)c7-c7cc5ccc7O)[C@H](O)c5ccc(c(Cl)c5)O6)O[C@H](CO)[C@@H](O)[C@@H]4O)O[C@@H](C)[C@H]3O)CC2)C1=O)C(N)=O (stereo partly shown) [VV-R3C-C16]	2.50 µg/mL (≈ 0.985 µM)	2.50 to 3.50 µg/mL
CCCCCCCCCCCCCCCCCC(=O)N[C@@H](CCCNC(=N)N)C(=O)N[C@@H](CCCNC(=N)N)C(=O)N[C@@H](CCCNC(=N)N)C(=O)N[C@@H](CSC1CC(=O)N(CC2CCC(C(=O)N(C)[C@H](CC(C)C)C(=O)N[C@H]3C(=O)N[C@@H](CC(N)=O)C(=O)N[C@H]4C(=O)N[C@H]5C(=O)N[C@H](C(=O)N[C@H](C(=O)O)c6cc(O)cc(O)c6-c6cc5ccc6O)[C@H](O)c5ccc(c(Cl)c5)Oc5cc4cc(c5O[C@@H]4O[C@H](CO)[C@@H](O)[C@H](O)[C@H]4O[C@H]4C[C@](C)(N)[C@H](O)[C@H](C)O4)Oc4ccc(cc4Cl)[C@H]3O)CC2)C1=O)C(N)=O (stereo partly shown) [VN-R3C-C18]	4.97 µg/mL (≈ 1.97 µM)	2.48 to 4.97 µg/mL
CCCCCCCCCC(=O)N[C@@H](CCCNC(=N)N)C(=O)N[C@@H](CCCNC(=N)N)C(=O)N[C@@H](CCCNC(=N)N)C(=O)N[C@@H](CSC1CC(=O)N(CC2CCC(C(=O)NCCN[C@@]3(C)C[C@H](O[C@H]4[C@H](Oc5c6cc7cc5Oc5ccc(cc5Cl)[C@@H](O)[C@@H](NC(=O)[C@@H](CC(C)C)NC)C(=O)N[C@@H](CC(N)=O)C(=O)N[C@H]7C(=O)N[C@H]5C(=O)N[C@H](C(=O)N[C@H](C(=O)O)c7cc(O)cc(O)c7-c7cc5ccc7O)[C@H](O)c5ccc(c(Cl)c5)O6)O[C@H](CO)[C@@H](O)[C@@H]4O)O[C@@H](C)[C@H]3O)CC2)C1=O)C(N)=O (stereo partly shown) [VV-R3C-C10]	0.63 µg/mL (≈ 0.257 µM)	0.05 to 0.84 µg/mL
CCCCCCCCCCCCCC(=O)N[C@@H](CCCNC(=N)N)C(=O)N[C@@H](CCCNC(=N)N)C(=O)N[C@@H](CCCNC(=N)N)C(=O)N[C@@H](CSC1CC(=O)N(CC2CCC(C(=O)NCCNC(=O)[C@H]3NC(=O)[C@H]4NC(=O)[C@H](NC(=O)[C@@H]5NC(=O)[C@H](CC(N)=O)NC(=O)[C@H](NC(=O)[C@@H](CC(C)C)NC)[C@H](O)c6ccc(c(Cl)c6)Oc6cc5cc(c6O[C@@H]5O[C@H](CO)[C@@H](O)[C@H](O)[C@H]5O[C@H]5C[C@](C)(N)[C@H](O)[C@H](C)O5)Oc5ccc(cc5Cl)[C@H]4O)c4ccc(O)c(c4)-c4c(O)cc(O)cc43)CC2)C1=O)C(N)=O (stereo partly shown) [VC-R3C-C14]	2.45 µg/mL (≈ 0.976 µM)	2.45 to 4.91 µg/mL
